pKd: −log10 of the molar value.

A word on the pKd: it is the negative decadic logarithm of the Kd, by convention in mol/L.

Chain of human sRAGE (the soluble extracellular domain of the human receptor for advanced glycation endproducts) (Q15109 23-342): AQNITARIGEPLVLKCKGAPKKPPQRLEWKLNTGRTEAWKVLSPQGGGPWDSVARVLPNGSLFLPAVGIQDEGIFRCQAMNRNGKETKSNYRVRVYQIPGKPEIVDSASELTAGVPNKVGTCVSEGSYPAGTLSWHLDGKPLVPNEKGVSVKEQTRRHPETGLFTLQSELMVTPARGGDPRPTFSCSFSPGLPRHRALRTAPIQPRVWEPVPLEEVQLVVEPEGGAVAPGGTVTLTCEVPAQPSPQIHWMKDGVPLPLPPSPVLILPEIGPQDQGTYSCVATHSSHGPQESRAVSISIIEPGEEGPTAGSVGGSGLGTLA

The assay deals with human sRAGE (the soluble extracellular domain of the human receptor for advanced glycation endproducts) (Homo sapiens (Human), UniProt Q15109). Nature of the assay: Microscale thermophoresis binding affinity to recombinant human sRAGE. Conditions: 25° C., pH 7.5. The procedure:
Around 5 nM sRAGE was subsequently added to compounds at concentrations from 600 nM to 20 pM and incubated for 5 minutes at 25° C. in buffer containing 25 mM Hepes (pH 7.5), 5 mM CaCl2), 5 mM MgCl2, 50 mM NaCl, 0.05% Tween20 and 1% DMSO before proceeding to microscale thermophoresis.
The raw thermophoresis data and average Kds were generated according to manufacturer's protocol using the Microscale Thermophoresis System analysis software.
For the molecule `CCCCc1nc(-c2ccc(OCCC(=O)O)cc2)cn1-c1ccc(Oc2ccc(Cl)cc2)cc1` [Metabolite M1, 3-(4-{2-Butyl-1-[4-(4-chloro-phenoxy)-phenyl]-1H-imidazol-4-yl}-phenoxy)-propionic acid], the pKd was 6.66.
With `CCCCc1nc(-c2ccc(O)cc2)cn1-c1ccc(Oc2ccc(Cl)cc2)cc1` [Metabolite M3, 4-{2-butyl-1-[4-(4-chloro-phenoxy)-phenyl]-1H-imidazol-4-yl}-phenol], the negative logarithm of the Kd (pKd) is 6.59.
As for `CCCCc1nc(-c2ccc(OCCCN(CC)CC)cc2)cn1-c1ccc(Oc2ccc(Cl)cc2O)cc1` [Metabolite M5, 2-[4-[2-butyl-4-[4-[3-(diethylamino)propoxy]phenyl]imidazol-1-yl]phenoxy]-5-chloro-phenol], the pKd is 8.01.
In the case of `CCCCc1nc(-c2ccc(OCCCN(CC)CC)cc2)cn1-c1ccc(Oc2ccc(Cl)c(O)c2)cc1` [Metabolite M6, 5-[4-[2-butyl-4-[4-[3-(diethylamino)propoxy]phenyl]imidazol-1-yl]phenoxy]-2-chloro-phenol], the pKd is 8.01.
With `CCCCc1nc(-c2ccc(OCCCO)cc2)cn1-c1ccc(Oc2ccc(Cl)cc2)cc1` [Metabolite M7, 3-(4-{2-Butyl-1-[4-(4-chloro-phenoxy)-phenyl]-1H-imidazol-4-yl}-phenoxy)-propan-1-ol], the pKd is 7.00.

The values above are taken from patent US11524942B2, “Metabolites of [3-(4-{2-butyl-1-[4-(4-chloro-phenoxy)-phenyl]-1H-imidazol-4 yl}-phenoxy)-propyl]-diethyl-amine” (vTv Therapeutics LLC, priority 2018, dated 2022).
